Measurements as given in ChEMBL document CHEMBL3244225, “Synthesis and biological activity of some vinyl-substituted 2-nitroimidazoles” (J Med Chem, 1977).
≈ marks a conversion by molar mass, not a printed value. Calls of active or inactive are those of the source. No cut-off for these calls is given here.

How the values were obtained:
[1] = system: Staphylococcus aureus; assay: Antimicrobial activity against Staphylococcus aureus Tour by tube dilution method; format: functional
[2] = system: Streptococcus pyogenes; assay: Antimicrobial activity against Streptococcus haemolyticus C 203 by tube dilution method; format: functional
[3] = system: Streptococcus pneumoniae; assay: Antimicrobial activity against Diplococcus pneumoniae UC41 by tube dilution method; format: functional
[4] = system: Clostridium perfringens; assay: Antimicrobial activity against Clostridium perfringens ISS 30543 by tube dilution method; format: functional
[5] = system: Proteus vulgaris; assay: Antimicrobial activity against Proteus vulgaris X19 H ATCC 881 by tube dilution method; format: functional
[6] = system: Escherichia coli; assay: Antimicrobial activity against Escherichia coli SKF 12140 by tube dilution method; format: functional
[7] = system: Shigella sonnei; assay: Antimicrobial activity against Shigella sonnei ATCC 9290 by tube dilution method; format: functional
[8] = system: Salmonella typhimurium; assay: Antimicrobial activity against Salmonella typhimurium Kh by tube dilution method; format: functional, Salmonella enterica subsp. enterica serovar Typhimurium; details: Salmonella enterica
[9] = system: Klebsiella pneumoniae; assay: Antimicrobial activity against Klebsiella pneumoniae I.S.M. by tube dilution method; format: functional
[10] = system: Pseudomonas aeruginosa; assay: Antimicrobial activity against Pseudomonas aeruginosa ATCC 10145 by tube dilution method; format: functional
[11] = system: Candida albicans; assay: Antimicrobial activity against Candida albicans SKF 2270 by tube dilution method; format: functional
[12] = system: Trichophyton mentagrophytes; assay: Antimicrobial activity against Trichophyton mentagrophytes SKF 17410 by tube dilution method; format: functional
[13] = system: Mycobacterium tuberculosis; assay: Antimicrobial activity against Mycobacterium tuberculosis ATCC 9360 by tube dilution method; format: functional
[14] = system: Trichomonas vaginalis; assay: Trichomonastatic activity against Trichomonas vaginalis by tube dilution method; format: functional
[15] = system: Trichomonas vaginalis; assay: Trichomonacidal activity against Trichomonas vaginalis by tube dilution method; format: functional
[16] = system: Trichomonas vaginalis; assay: Antimicrobial activity against Trichomonas vaginalis infected in sc dosed mouse; format: functional
[17] = system: Trichomonas vaginalis; assay: Ratio of metronidazole ED50 to compound ED50 for Trichomonas vaginalis infected in sc dosed mouse; format: functional
[18] = Toxicity in po dosed mouse infected with Trichomonas vaginalis; format: organism-based; details: in vivo
[19] = system: Mycoplasmoides gallisepticum; assay: Antimicrobial activity against Mycoplasma gallisepticum H21 C.Z.B. by tube dilution method; format: functional
[20] = system: Escherichia coli; assay: Antimicrobial activity against Escherichia coli infected in mouse at 200 mg/kg, sc; format: functional, organism-based; set-up: dose 200 mg/kg
[21] = system: Escherichia coli; assay: Antimicrobial activity against Escherichia coli infected in mouse at 250 mg/kg, po; format: functional, organism-based; set-up: dose 250 mg/kg
[22] = system: Escherichia coli; assay: Antimicrobial activity against Escherichia coli infected in mouse at 250 mg/kg, sc; format: functional, organism-based; set-up: dose 250 mg/kg
[23] = Toxicity in po dosed mouse infected with Escherichia coli; format: organism-based; details: in vivo
[24] = Toxicity in sc dosed mouse infected with Escherichia coli; format: organism-based; details: in vivo
[25] = system: Escherichia coli; assay: Antimicrobial activity against Escherichia coli infected in mouse at 300 mg/kg, po; format: functional, organism-based; set-up: dose 300 mg/kg
[26] = system: Staphylococcus aureus; assay: Antimicrobial activity against Staphylococcus aureus infected in mouse at 200 mg/kg, po; format: functional, organism-based; set-up: dose 200 mg/kg
[27] = system: Staphylococcus aureus; assay: Antimicrobial activity against Staphylococcus aureus infected in mouse at 200 mg/kg, sc; format: functional, organism-based; set-up: dose 200 mg/kg

Compound | MIC [1] | MIC [2] | MIC [3] | MIC [4] | MIC [5] | MIC [6] | MIC [7] | MIC [8] | MIC [9] | MIC [10] | MIC [11] | MIC [12] | MIC [13] | MIC [14] | MIC [15] | ED50 [16] | Ratio ED50 [17] | LD50 [18] | MIC [19] | further results
C=Cc1cnc([N+](=O)[O-])n1C | 50 µg/mL (≈ 326 µM) | > 100 µg/mL | > 100 µg/mL | 0.5 µg/mL (≈ 3.26 µM) | 100 µg/mL (≈ 653 µM) | 10 µg/mL (≈ 65.3 µM) | 20 µg/mL (≈ 131 µM) | 5 µg/mL (≈ 32.6 µM) | 10 µg/mL (≈ 65.3 µM) | 20 µg/mL (≈ 131 µM) | 100 µg/mL (≈ 653 µM) | 50 µg/mL (≈ 326 µM) | 20 µg/mL (≈ 131 µM) | 1 µg/mL (≈ 6.53 µM) | 1 µg/mL (≈ 6.53 µM) | 14 mg/kg | 3 | 480 mg/kg |  | 
Cc1cnc([N+](=O)[O-])n1CCOS(C)(=O)=O | 100 µg/mL (≈ 401 µM) | 100 µg/mL (≈ 401 µM) | > 100 µg/mL | 20 µg/mL (≈ 80.2 µM) | > 100 µg/mL | 100 µg/mL (≈ 401 µM) | 100 µg/mL (≈ 401 µM) | 100 µg/mL (≈ 401 µM) | > 100 µg/mL | > 100 µg/mL | > 100 µg/mL | > 100 µg/mL | > 100 µg/mL | 50 µg/mL (≈ 201 µM) | 100 µg/mL (≈ 401 µM) | 8.12 mg/kg | 0.6 | 800 mg/kg | > 100 µg/mL | 
COC(=O)/C=C/c1cnc([N+](=O)[O-])n1C | > 100 µg/mL | > 100 µg/mL | > 100 µg/mL | > 100 µg/mL | > 100 µg/mL | 50 µg/mL (≈ 237 µM) | 100 µg/mL (≈ 474 µM) | 100 µg/mL (≈ 474 µM) | > 100 µg/mL | > 100 µg/mL | > 100 µg/mL | 100 µg/mL (≈ 474 µM) | 50 µg/mL (≈ 237 µM) | 10 µg/mL (≈ 47.4 µM) | 50 µg/mL (≈ 237 µM) |  | >2.8 | > 1000 mg/kg | > 100 µg/mL | 
CC(=O)/C=C/c1cnc([N+](=O)[O-])n1C | 50 µg/mL (≈ 256 µM) | 100 µg/mL (≈ 512 µM) | 100 µg/mL (≈ 512 µM) | 5 µg/mL (≈ 25.6 µM) | 100 µg/mL (≈ 512 µM) | 20 µg/mL (≈ 102 µM) | 50 µg/mL (≈ 256 µM) | 50 µg/mL (≈ 256 µM) | 100 µg/mL (≈ 512 µM) | > 100 µg/mL | > 100 µg/mL | 100 µg/mL (≈ 512 µM) | 20 µg/mL (≈ 102 µM) | 10 µg/mL (≈ 51.2 µM) | 50 µg/mL (≈ 256 µM) |  | 1.1 | 800 mg/kg | 50 µg/mL (≈ 256 µM) | Activity [20]: inactive
CC(/C=C/c1cnc([N+](=O)[O-])n1C)=[N+](\C)[O-] | 50 µg/mL (≈ 223 µM) | 100 µg/mL (≈ 446 µM) | 50 µg/mL (≈ 223 µM) | 10 µg/mL (≈ 44.6 µM) | 100 µg/mL (≈ 446 µM) | 50 µg/mL (≈ 223 µM) | 100 µg/mL (≈ 446 µM) | 100 µg/mL (≈ 446 µM) | 100 µg/mL (≈ 446 µM) | > 100 µg/mL | > 100 µg/mL | > 100 µg/mL | > 100 µg/mL | 50 µg/mL (≈ 223 µM) | 100 µg/mL (≈ 446 µM) |  | 2.6 | 700 mg/kg | 50 µg/mL (≈ 223 µM) | Activity [21]: inactive; Activity [22]: inactive; LD50 [23]: 700 mg/kg; LD50 [24]: 700 mg/kg
Cn1c(/C=C/C=O)cnc1[N+](=O)[O-] | 20 µg/mL (≈ 110 µM) | 10 µg/mL (≈ 55.2 µM) | 5 µg/mL (≈ 27.6 µM) | 20 µg/mL (≈ 110 µM) | 20 µg/mL (≈ 110 µM) | 5 µg/mL (≈ 27.6 µM) | 20 µg/mL (≈ 110 µM) | 5 µg/mL (≈ 27.6 µM) | 10 µg/mL (≈ 55.2 µM) | 100 µg/mL (≈ 552 µM) | > 100 µg/mL | 10 µg/mL (≈ 55.2 µM) | 50 µg/mL (≈ 276 µM) | 20 µg/mL (≈ 110 µM) | 50 µg/mL (≈ 276 µM) |  |  |  | 50 µg/mL (≈ 276 µM) | Activity [25]: inactive
Cn1c(/C=C/C=[N+](/C)[O-])cnc1[N+](=O)[O-] | 10 µg/mL (≈ 47.6 µM) | 20 µg/mL (≈ 95.2 µM) | 100 µg/mL (≈ 476 µM) | 5 µg/mL (≈ 23.8 µM) | > 100 µg/mL | 50 µg/mL (≈ 238 µM) | 20 µg/mL (≈ 95.2 µM) | 20 µg/mL (≈ 95.2 µM) | 20 µg/mL (≈ 95.2 µM) | > 100 µg/mL | > 100 µg/mL | > 100 µg/mL | 100 µg/mL (≈ 476 µM) | > 100 µg/mL |  |  |  |  | 10 µg/mL (≈ 47.6 µM) | Activity [26]: Active; Activity [27]: Active; LD50 [23]: 700 mg/kg; LD50 [24]: 700 mg/kg
C=Cn1c(C)cnc1[N+](=O)[O-] | > 100 µg/mL | > 100 µg/mL | > 100 µg/mL | > 100 µg/mL | > 100 µg/mL | > 100 µg/mL | > 100 µg/mL | > 100 µg/mL | > 100 µg/mL | > 100 µg/mL | > 100 µg/mL | > 100 µg/mL | > 100 µg/mL | 20 µg/mL (≈ 131 µM) | 50 µg/mL (≈ 326 µM) |  | 0.6 | 75 mg/kg | > 100 µg/mL | 
Cc1ncc([N+](=O)[O-])n1CCO [METRONIDAZOLE] |  |  |  |  |  |  |  |  |  |  |  |  |  | 0.5 µg/mL (≈ 2.92 µM) | 2 µg/mL (≈ 11.7 µM) | 12.3 mg/kg |  |  |  | 
